Among the data in patent publication US9012489B2, “Phenyl-3-aza-bicyclo[3.1.0]hex-3-yl-methanones and the use thereof as medicament” (Boehringer Ingelheim International GmbH, priority 2011, dated 2015) are IC50 values, retold here.

The target in this experiment is T1, GlyT1 transporter (Homo sapiens, UniProt P48067).
T1 construct: endogenously expressing the GlyT1 transporter; host or cells: SK-N-MC human neuroblastoma cells
T1 sequence (P48067 1-706): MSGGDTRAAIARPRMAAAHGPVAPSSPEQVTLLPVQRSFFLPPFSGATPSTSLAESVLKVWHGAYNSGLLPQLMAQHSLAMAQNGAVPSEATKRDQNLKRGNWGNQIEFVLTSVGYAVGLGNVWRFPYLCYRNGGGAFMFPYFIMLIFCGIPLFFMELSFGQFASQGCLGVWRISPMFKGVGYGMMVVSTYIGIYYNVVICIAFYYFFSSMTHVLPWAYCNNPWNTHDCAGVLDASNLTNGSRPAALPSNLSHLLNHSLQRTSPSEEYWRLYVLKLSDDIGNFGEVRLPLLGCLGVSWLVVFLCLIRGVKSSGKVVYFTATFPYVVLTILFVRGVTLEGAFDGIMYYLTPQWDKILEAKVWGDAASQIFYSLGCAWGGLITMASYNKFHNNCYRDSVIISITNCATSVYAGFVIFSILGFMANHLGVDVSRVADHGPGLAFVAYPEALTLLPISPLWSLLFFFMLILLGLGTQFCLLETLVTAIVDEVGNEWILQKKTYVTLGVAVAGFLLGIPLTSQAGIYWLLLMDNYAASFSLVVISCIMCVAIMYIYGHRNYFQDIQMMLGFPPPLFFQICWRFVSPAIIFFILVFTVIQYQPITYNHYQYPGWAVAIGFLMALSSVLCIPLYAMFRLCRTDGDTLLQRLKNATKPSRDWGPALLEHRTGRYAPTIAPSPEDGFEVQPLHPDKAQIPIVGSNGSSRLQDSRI
In words: GlyT1 assay: 3H-glycine uptake into SK-N-MC cells (Cytostar-T format). Type of experiment: cell-based. Particulars: glycine uptake in human SK-N-MC cells endogenously expressing GlyT1; 500 nM glycine, 1% DMSO, signal recorded over 60 min. An outline of the steps:
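Uptake slopes, measured over 60 min from the linear kinetic range, give IC50 from 8 compound concentrations, with 10 μM RG-1678 setting background. Substrate is 500 nM glycine (250 nM ³H, 250 nM unlabelled) in HBSS/5 mM alanine, 1% DMSO, after roughly 5-10 min compound preincubation. Cells: confluent SK-N-MC endogenously expressing human GlyT1.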
With `C[C@H](Oc1ccc(S(C)(=O)=O)cc1C(=O)N1CC2CC2(c2nnc(C(F)(F)F)o2)C1)C(F)(F)F` (single isomer, unassigned) [Example 126, [5-Methanesulfonyl-2-(2,2,2-trifluoro-1-methyl-ethoxy)-phenyl]-[1-(5-trifluoromethyl-[1,3,4]oxadiazol-2-yl)-3-aza-bicyclo[3.1.0]hex-3-yl]-methanone], the half-inhibitory concentration (IC50) (commonly the concentration that inhibits the measured activity by half) was 16 nM. In other words, the double-digit nanomolar range.

Turning to `C[C@@H](Oc1ccc(S(C)(=O)=O)cc1C(=O)N1CC2CC2(c2noc(C3(C(F)(F)F)CC3)n2)C1)C(F)(F)F` (mixture of isomers) [Example 68, [5-Methanesulfonyl-2-(2,2,2-trifluoro-1-methyl-ethoxy)-phenyl]-{1-[5-(1-trifluoromethyl-cyclopropyl)-[1,2,4]oxadiazol-3-yl]-3-aza-bicyclo[3.1.0]hex-3-yl}-methanone], half-maximal inhibition (IC50) required 7 nM. This IC50 lies about 2.3-fold lower than the previous one.

As for `C[C@H](Oc1ccc(S(C)(=O)=O)cc1C(=O)N1CC2CC2(c2cc(C(F)(F)F)on2)C1)C(F)(F)F` (single isomer, unassigned) [Example 47, [5-Methanesulfonyl-2-(2,2,2-trifluoro-1-methyl-ethoxy)-phenyl]-[1-(5-trifluoromethyl-isoxazol-3-yl)-3-aza-bicyclo[3.1.0]hex-3-yl]-methanone], the IC50 is 7 nM.

`C[C@H](Oc1ccc(S(C)(=O)=O)cc1C(=O)N1CC2CC2(c2ncc(C(F)(F)F)o2)C1)C(F)(F)F` (single isomer, unassigned) [Example 132, [5-Methanesulfonyl-2-(2,2,2-trifluoro-1-methyl-ethoxy)-phenyl]-[1-(5-trifluoromethyl-oxazol-2-yl)-3-aza-bicyclo[3.1.0]hex-3-yl]-methanone] showed a half-inhibitory concentration (IC50) of 3 nM.

The molecule `C[C@@H](Oc1ccc(S(C)(=O)=O)cc1C(=O)N1CC2CC2(c2coc(C3CC3)n2)C1)C(F)(F)F` (single isomer, unassigned) [Example 82] had an IC50 of 782 nM.

Molecule `C[C@H](Oc1ccc(S(C)(=O)=O)cc1C(=O)N1CC2CC2(c2nc(C(F)(F)F)no2)C1)C(F)(F)F` (single isomer, unassigned) [Example 84, [5-Methanesulfonyl-2-(2,2,2-trifluoro-1-methyl-ethoxy)-phenyl]-[1-(3-trifluoromethyl-[1,2,4]oxadiazol-5-yl)-3-aza-bicyclo[3.1.0]hex-3-yl]-methanone] showed a half-maximal inhibitory concentration (IC50) of 16 nM.

For the molecule `C[C@@H](Oc1ccc(S(C)(=O)=O)cc1C(=O)N1CC2CC2(c2noc(C3(C(F)(F)F)CC3)n2)C1)C(F)(F)F` (single isomer, unassigned) [Example 70, [5-Methanesulfonyl-2-(2,2,2-trifluoro-1-methyl-ethoxy)-phenyl]-{1-[5-(1-trifluoromethyl-cyclopropyl)-[1,2,4]oxadiazol-3-yl]-3-aza-bicyclo[3.1.0]hex-3-yl}-methanone], it took 155 nM to reach half-maximal inhibition (IC50).

The molecule `Cc1nc(C23CC2CN(C(=O)c2cc(S(C)(=O)=O)ccc2O[C@H](C)C(F)(F)F)C3)no1` (single isomer, unassigned) [Example 42, [5-Methanesulfonyl-2-(2,2,2-trifluoro-1-methyl-ethoxy)-phenyl]-[1-(5-methyl-[1,2,4]oxadiazol-3-yl)-3-aza-bicyclo[3.1.0]hex-3-yl]-methanone] yielded an IC50 of 6 nM.

`C[C@H](Oc1ccc(S(C)(=O)=O)cc1C(=O)N1CC2CC2(c2cc(C(F)(F)F)on2)C1)C(F)(F)F` (mixture of isomers) [Example 46, [5-Methanesulfonyl-2-(2,2,2-trifluoro-1-methyl-ethoxy)-phenyl]-[1-(5-trifluoromethyl-isoxazol-3-yl)-3-aza-bicyclo[3.1.0]hex-3-yl]-methanone] came in with an IC50 of 29 nM.

As for `C[C@@H](Oc1ccc(S(C)(=O)=O)cc1C(=O)N1CC2CC2(c2nc(C(F)(F)F)no2)C1)C(F)(F)F` (single isomer, unassigned) [Example 86, [5-Methanesulfonyl-2-(2,2,2-trifluoro-1-methyl-ethoxy)-phenyl]-[1-(3-trifluoromethyl-[1,2,4]oxadiazol-5-yl)-3-aza-bicyclo[3.1.0]hex-3-yl]-methanone], the 50% inhibitory concentration (IC50) was 20 nM.

In turn, `C[C@@H](Oc1ccc(S(C)(=O)=O)cc1C(=O)N1CC2CC2(c2nnc(C(F)(F)F)o2)C1)C(F)(F)F` (single isomer, unassigned) [Example 123, [5-Methanesulfonyl-2-(2,2,2-trifluoro-1-methyl-ethoxy)-phenyl]-[1-(5-trifluoromethyl-[1,3,4]oxadiazol-2-yl)-3-aza-bicyclo[3.1.0]hex-3-yl]-methanone] displayed an IC50 of 13 nM.

Take `C[C@@H](Oc1ccc(S(C)(=O)=O)cc1C(=O)N1CC2CC2(c2nccc(C(F)(F)F)n2)C1)C(F)(F)F` (single isomer, unassigned) [Example 18, [5-Methanesulfonyl-2-(2,2,2-trifluoro-1-methyl-ethoxy)-phenyl]-[1-(4-trifluoromethyl-pyrimidin-2-yl)-3-aza-bicyclo[3.1.0]hex-3-yl]-methanone]: the IC50 is 106 nM.

Molecule `C[C@H](Oc1ccc(S(C)(=O)=O)cc1C(=O)N1CC2CC2(c2nc(C3CC3)no2)C1)C(F)(F)F` (single isomer, unassigned) [Example 143, [1-(3-Cyclopropyl-[1,2,4]oxadiazol-5-yl)-3-aza-bicyclo[3.1.0]hex-3-yl]-[5-methanesulfonyl-2-(2,2,2-trifluoro-1-methyl-ethoxy)-phenyl]-methanone] displayed a half-maximal inhibitory concentration (IC50) of 7 nM.

`Cc1noc(C23CC2CN(C(=O)c2cc(S(C)(=O)=O)ccc2O[C@H](C)C(F)(F)F)C3)n1` (mixture of isomers) [Example 35, [5-Methanesulfonyl-2-(2,2,2-trifluoro-1-methyl-ethoxy)-phenyl]-[1-(3-methyl-[1,2,4]oxadiazol-5-yl)-3-aza-bicyclo[3.1.0]hex-3-yl]-methanone] registered an IC50 of 101 nM.

In turn, `CCS(=O)(=O)c1ccc(O[C@H](C)C(F)(F)F)c(C(=O)N2CC3CC3(c3noc(C(F)(F)F)n3)C2)c1` (single isomer, unassigned) [Example 94, [5-Ethanesulfonyl-2-(2,2,2-trifluoro-1-methyl-ethoxy)-phenyl]-[1-(5-trifluoromethyl-[1,2,4]oxadiazol-3-yl)-3-aza-bicyclo[3.1.0]hex-3-yl]-methanone] gave a half-inhibitory concentration (IC50) of 2910 nM.

The molecule `C[C@H](Oc1ccc(S(C)(=O)=O)cc1C(=O)N1CC2CC2(c2cccc(C(F)(F)F)n2)C1)C(F)(F)F` (mixture of isomers) [Example 54, [5-Methanesulfonyl-2-(2,2,2-trifluoro-1-methyl-ethoxy)-phenyl]-[1-(6-trifluoromethyl-pyridin-2-yl)-3-aza-bicyclo[3.1.0]hex-3-yl]-methanone] returned a 50% inhibitory concentration (IC50) of 16 nM.

`C[C@H](Oc1ccc(S(C)(=O)=O)cc1C(=O)N1CC2CC2(c2cc(C(F)(F)F)on2)C1)C(F)(F)F` (single isomer, unassigned) [Example 48, [5-Methanesulfonyl-2-(2,2,2-trifluoro-1-methyl-ethoxy)-phenyl]-[1-(5-trifluoromethyl-isoxazol-3-yl)-3-aza-bicyclo[3.1.0]hex-3-yl]-methanone]: the half-inhibitory concentration (IC50) is 886 nM.

Molecule `C[C@@H](Oc1ccc(S(C)(=O)=O)cc1C(=O)N1CC2CC2(c2noc(C3CC3)n2)C1)C(F)(F)F` (single isomer, unassigned) [Example 44, [1-(5-Cyclopropyl-[1,2,4]oxadiazol-3-yl)-3-aza-bicyclo[3.1.0]hex-3-yl]-[5-methanesulfonyl-2-(2,2,2-trifluoro-1-methyl-ethoxy)-phenyl]-methanone] showed an IC50 of 397 nM.

For `C[C@H](Oc1ccc(S(C)(=O)=O)cc1C(=O)N1CC2CC2(c2noc(C3CC3)n2)C1)C(F)(F)F` (mixture of isomers) [Example 9, [1-(5-Cyclopropyl-[1,2,4]oxadiazol-3-yl)-3-aza-bicyclo[3.1.0]hex-3-yl]-[5-methanesulfonyl-2-(2,2,2-trifluoro-1-methyl-ethoxy)-phenyl]-methanone], the IC50 amounted to 18 nM. Against the preceding molecule, the IC50 is about 22-fold lower.

Molecule `CCS(=O)(=O)c1ccc(O[C@H](C)C(F)(F)F)c(C(=O)N2CC3CC3(c3noc(C(F)(F)F)n3)C2)c1` (mixture of isomers) [Example 92, [5-Ethanesulfonyl-2-(2,2,2-trifluoro-1-methyl-ethoxy)-phenyl]-[1-(5-trifluoromethyl-[1,2,4]oxadiazol-3-yl)-3-aza-bicyclo[3.1.0]hex-3-yl]-methanone] registered an IC50 of 25 nM.

`CS(=O)(=O)c1ccc(O[C@@H]2CCOC2)c(C(=O)N2CC3CC3(c3noc(C(F)(F)F)n3)C2)c1` (mixture of isomers) [Example 138, [5-Methanesulfonyl-2-(tetrahydro-furan-3-yloxy)-phenyl]-[1-(5-trifluoromethyl-[1,2,4]oxadiazol-3-yl)-3-aza-bicyclo[3.1.0]hex-3-yl]-methanone] yielded a concentration for half-maximal inhibition (IC50) of 261 nM.
